Test results published in ChEMBL document CHEMBL5465560, “Selectivity Literature for EUbOPEN Chemogenomic Library” (2024).
Values belong to the compound of their own block, whether it stands above or below them.

Key:
[1] = target: T1, Dual serine/threonine and tyrosine protein kinase (Homo sapiens) (UniProt Q6XUX3); conditions: at 10 µM
T1 sequence (whole entry): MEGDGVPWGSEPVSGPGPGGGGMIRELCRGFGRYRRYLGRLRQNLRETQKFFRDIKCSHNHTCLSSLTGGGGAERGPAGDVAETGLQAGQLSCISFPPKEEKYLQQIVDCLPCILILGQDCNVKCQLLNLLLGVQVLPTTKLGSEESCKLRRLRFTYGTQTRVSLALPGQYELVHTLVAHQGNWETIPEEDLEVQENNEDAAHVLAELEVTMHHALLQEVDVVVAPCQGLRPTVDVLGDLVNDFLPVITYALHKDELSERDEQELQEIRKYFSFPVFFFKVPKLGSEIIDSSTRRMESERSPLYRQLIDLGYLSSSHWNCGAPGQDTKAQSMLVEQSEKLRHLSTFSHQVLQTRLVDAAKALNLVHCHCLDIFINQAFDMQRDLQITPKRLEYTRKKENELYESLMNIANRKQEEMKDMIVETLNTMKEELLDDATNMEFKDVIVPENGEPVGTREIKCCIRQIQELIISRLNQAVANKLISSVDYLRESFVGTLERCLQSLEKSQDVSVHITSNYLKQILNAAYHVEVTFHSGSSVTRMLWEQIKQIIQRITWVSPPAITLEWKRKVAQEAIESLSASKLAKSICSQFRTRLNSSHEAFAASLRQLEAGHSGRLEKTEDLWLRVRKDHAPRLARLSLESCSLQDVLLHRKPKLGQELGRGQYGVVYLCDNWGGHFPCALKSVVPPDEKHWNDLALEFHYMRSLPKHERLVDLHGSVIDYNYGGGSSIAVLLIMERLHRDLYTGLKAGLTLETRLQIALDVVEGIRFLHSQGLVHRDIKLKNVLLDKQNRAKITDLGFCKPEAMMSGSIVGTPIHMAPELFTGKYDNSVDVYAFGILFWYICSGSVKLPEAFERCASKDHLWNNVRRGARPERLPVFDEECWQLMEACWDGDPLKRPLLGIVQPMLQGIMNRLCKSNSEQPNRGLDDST

[2] = target: T2, Mitogen-activated protein kinase kinase kinase kinase 2 (Homo sapiens) (UniProt Q12851); conditions: at 10 µM
T2 sequence (whole entry): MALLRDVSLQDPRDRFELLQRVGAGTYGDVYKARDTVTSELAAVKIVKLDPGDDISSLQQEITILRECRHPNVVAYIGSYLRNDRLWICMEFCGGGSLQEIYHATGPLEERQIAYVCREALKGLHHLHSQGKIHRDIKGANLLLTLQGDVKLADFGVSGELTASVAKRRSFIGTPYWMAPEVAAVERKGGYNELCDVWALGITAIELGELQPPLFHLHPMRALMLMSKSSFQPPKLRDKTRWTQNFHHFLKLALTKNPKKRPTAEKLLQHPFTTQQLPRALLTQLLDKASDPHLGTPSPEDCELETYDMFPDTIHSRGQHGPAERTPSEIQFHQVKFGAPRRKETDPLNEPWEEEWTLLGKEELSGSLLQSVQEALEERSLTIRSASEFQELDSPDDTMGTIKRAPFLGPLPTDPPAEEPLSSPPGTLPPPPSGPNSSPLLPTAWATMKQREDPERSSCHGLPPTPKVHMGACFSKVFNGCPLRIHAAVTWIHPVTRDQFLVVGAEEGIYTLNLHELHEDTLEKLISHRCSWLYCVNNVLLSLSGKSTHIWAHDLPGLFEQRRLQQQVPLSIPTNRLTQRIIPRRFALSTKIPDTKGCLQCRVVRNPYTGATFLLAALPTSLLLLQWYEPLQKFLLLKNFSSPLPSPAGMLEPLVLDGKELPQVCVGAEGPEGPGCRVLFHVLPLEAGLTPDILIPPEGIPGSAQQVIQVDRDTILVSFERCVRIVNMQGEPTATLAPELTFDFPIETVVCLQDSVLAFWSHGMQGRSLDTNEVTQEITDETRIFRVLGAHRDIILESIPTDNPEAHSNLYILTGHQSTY

[3] = target: Protein-tyrosine kinase 2-beta (Homo sapiens) (UniProt Q14289); assay: Selectivity interaction (ActivX KiNativ screen (kinase selectivity in THP-1 cell lysates)) EUB0000639a PTK2B; type: subcellular; conditions: lysate, at 1 µM
Protein-tyrosine kinase 2-beta (Homo sapiens), sequence (Q14289 whole entry, looked up): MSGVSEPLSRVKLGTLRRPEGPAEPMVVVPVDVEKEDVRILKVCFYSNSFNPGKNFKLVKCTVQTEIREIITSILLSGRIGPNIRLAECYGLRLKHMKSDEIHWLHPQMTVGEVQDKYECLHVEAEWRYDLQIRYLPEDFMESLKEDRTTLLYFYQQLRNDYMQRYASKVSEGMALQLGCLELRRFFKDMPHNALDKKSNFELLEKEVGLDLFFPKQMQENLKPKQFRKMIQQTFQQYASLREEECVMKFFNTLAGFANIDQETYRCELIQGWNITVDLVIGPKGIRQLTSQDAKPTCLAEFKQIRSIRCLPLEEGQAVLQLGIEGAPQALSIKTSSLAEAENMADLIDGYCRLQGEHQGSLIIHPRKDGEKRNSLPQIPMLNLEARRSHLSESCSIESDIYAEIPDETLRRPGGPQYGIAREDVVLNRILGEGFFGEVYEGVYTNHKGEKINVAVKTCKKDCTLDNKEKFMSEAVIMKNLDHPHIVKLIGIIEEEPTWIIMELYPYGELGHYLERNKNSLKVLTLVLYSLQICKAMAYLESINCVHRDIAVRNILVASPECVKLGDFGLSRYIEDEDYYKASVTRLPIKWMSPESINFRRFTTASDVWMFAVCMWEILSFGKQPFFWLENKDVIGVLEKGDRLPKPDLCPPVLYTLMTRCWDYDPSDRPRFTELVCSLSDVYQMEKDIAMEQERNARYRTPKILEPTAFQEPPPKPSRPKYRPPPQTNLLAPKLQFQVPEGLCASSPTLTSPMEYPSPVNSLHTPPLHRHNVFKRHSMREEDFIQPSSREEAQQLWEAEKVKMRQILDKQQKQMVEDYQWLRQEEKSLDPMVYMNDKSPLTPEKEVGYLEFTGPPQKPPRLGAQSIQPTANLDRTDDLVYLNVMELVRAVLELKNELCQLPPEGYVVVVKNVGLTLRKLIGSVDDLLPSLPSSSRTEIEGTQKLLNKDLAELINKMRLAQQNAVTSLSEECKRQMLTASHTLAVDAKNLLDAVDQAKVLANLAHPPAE

[4] = target: Cell division control protein 42 homolog (Homo sapiens) (UniProt P60953); assay: Selectivity interaction (Kinase panel (Invitrogen)) EUB0000639a CDC42; conditions: at 200 nM
Cell division control protein 42 homolog (Homo sapiens), sequence (P60953 whole entry, looked up): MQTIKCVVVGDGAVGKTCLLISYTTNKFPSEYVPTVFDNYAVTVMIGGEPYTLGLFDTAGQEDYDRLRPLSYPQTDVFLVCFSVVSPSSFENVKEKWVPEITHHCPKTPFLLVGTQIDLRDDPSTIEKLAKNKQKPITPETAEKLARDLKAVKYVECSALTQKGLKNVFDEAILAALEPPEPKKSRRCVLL

[5] = target: 5-hydroxytryptamine receptor 1B (Homo sapiens) (UniProt P28222); assay: Selectivity interaction (Panel of non-epigenetic targets (kinases, GPCRs, ion channels, and transporters, Eurofins) ) EUB0000271b HTR1B; conditions: at 1 µM
5-hydroxytryptamine receptor 1B (Homo sapiens), sequence (P28222 whole entry): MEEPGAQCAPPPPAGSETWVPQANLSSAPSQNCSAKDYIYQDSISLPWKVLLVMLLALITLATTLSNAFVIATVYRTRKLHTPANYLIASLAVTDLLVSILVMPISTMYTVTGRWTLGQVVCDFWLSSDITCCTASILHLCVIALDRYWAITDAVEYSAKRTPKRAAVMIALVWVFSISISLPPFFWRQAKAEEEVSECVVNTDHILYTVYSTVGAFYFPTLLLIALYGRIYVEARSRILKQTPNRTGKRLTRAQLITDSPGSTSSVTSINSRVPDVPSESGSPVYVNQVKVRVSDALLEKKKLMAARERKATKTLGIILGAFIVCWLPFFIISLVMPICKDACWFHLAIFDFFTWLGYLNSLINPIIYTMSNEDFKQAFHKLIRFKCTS

[6] = target: Serine/threonine-protein kinase PAK 1 (Homo sapiens) (UniProt Q13153); assay: Selectivity interaction (ProQinase) EUB0000171b PAK1
Serine/threonine-protein kinase PAK 1 (Homo sapiens), sequence (Q13153 whole entry, the tested form may be a part): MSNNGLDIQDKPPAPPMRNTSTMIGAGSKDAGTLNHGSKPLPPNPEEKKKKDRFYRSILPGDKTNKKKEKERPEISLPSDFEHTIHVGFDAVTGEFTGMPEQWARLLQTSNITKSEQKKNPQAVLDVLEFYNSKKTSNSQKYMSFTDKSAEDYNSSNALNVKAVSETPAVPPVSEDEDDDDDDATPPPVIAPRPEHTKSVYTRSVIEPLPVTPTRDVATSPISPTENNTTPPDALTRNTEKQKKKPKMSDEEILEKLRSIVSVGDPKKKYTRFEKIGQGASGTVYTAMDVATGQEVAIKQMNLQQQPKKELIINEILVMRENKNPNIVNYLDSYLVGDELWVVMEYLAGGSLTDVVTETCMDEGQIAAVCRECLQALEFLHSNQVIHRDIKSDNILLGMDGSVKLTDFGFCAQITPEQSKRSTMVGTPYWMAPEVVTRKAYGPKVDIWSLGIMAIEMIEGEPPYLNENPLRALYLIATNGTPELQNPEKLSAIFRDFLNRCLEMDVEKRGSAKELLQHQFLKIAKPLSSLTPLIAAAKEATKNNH

[7] = target: LIM domain kinase 1 (Homo sapiens) (UniProt P53667); assay: Selectivity interaction (ProQinase) EUB0000171b LIMK1
LIM domain kinase 1 (Homo sapiens), sequence (P53667 whole entry, looked up, the tested form may be a part): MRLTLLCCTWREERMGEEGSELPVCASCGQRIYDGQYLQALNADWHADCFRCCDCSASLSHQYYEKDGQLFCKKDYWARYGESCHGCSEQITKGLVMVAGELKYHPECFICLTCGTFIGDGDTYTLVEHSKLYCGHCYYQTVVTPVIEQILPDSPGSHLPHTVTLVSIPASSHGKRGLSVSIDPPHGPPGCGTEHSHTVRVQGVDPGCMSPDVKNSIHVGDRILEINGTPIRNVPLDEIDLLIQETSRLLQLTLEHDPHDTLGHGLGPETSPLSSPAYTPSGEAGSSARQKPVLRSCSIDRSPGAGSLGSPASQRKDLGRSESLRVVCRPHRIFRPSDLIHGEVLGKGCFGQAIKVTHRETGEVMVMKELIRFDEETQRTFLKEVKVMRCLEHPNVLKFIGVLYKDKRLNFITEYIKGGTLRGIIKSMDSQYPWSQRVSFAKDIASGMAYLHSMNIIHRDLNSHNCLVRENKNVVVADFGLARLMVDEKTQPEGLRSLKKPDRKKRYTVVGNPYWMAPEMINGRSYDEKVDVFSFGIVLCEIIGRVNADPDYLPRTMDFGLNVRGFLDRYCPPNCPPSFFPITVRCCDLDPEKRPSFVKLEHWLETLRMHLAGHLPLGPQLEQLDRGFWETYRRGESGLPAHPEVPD

[8] = target: Death-associated protein kinase 2 (Homo sapiens) (UniProt Q9UIK4); assay: Selectivity interaction (KinomeScan (DiscoverX)) EUB0000618a DAPK2; conditions: at 10 µM
Death-associated protein kinase 2 (Homo sapiens), sequence (Q9UIK4 whole entry, looked up): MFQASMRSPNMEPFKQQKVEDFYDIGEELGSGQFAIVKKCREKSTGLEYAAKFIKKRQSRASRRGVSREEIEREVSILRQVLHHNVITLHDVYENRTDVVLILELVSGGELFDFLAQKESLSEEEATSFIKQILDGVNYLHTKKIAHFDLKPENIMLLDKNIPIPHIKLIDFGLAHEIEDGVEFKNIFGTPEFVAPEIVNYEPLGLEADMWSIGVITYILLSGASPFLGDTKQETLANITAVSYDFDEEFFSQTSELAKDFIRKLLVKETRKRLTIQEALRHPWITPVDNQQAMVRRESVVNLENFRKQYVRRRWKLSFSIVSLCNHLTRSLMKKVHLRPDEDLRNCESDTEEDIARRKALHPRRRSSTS

[9] = target: Serine/threonine-protein kinase 26 (Homo sapiens, UniProt Q9P289); assay: Selectivity interaction (Kinase panel (DSF assay)) EUB0001559a STK26
Serine/threonine-protein kinase 26, sequence (Q9P289 2-416 limits assumed): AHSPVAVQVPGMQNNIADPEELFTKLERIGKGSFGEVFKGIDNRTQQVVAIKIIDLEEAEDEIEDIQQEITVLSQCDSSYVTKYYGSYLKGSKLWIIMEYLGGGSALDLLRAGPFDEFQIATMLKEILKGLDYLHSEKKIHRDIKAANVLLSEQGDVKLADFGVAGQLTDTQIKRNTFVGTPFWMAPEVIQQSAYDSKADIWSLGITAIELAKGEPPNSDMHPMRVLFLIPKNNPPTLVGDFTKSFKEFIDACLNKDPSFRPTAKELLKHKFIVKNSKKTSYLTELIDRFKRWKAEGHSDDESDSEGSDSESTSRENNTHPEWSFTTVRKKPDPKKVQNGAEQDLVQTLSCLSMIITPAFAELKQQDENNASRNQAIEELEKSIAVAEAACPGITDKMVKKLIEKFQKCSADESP

[10] = target: T3, Histone-arginine methyltransferase CARM1 (Homo sapiens, UniProt Q86X55); assay: Selectivity interaction (Western Blot (dimethylation of BAF155 (BAF155me2a/BAF155) in U266B1 cells)) EUB0000255b CARM1; type: cell-based, U-266
T3 sequence (Q86X55 whole entry): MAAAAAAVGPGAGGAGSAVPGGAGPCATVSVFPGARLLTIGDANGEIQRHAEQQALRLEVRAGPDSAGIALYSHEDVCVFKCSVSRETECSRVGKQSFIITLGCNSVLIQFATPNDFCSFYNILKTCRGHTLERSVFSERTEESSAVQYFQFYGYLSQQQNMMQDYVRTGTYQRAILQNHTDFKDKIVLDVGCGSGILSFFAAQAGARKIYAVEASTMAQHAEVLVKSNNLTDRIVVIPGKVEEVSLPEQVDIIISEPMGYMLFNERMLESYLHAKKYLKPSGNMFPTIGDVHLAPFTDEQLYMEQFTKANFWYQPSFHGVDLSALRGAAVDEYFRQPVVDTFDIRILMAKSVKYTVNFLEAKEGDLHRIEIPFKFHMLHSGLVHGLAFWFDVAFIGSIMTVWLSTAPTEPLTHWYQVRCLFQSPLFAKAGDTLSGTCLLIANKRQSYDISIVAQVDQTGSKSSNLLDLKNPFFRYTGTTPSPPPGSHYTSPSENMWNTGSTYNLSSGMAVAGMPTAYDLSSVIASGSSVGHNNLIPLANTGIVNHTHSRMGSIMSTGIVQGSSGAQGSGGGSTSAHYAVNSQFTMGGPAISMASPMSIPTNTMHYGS

SMILES: Cc1cc([C@@H](C)Nc2ccccc2C(=O)O)c2nc(N3CCOCC3)cc(=O)n2c1 [AZD-6482]
% of control [1]: 100%
% of control [2]: 56%

% of inhibition [3]: -3.6%
% of inhibition [4]: 10.2%
SMILES: CC[C@@H]1[C@H](F)C(=O)N[C@@H]1COc1nccc2cc(C(N)=O)c(OC)cc12 [ZIMLOVISERTIB]

SMILES: Cc1cc(C)cc([C@@H]2c3cc(C)ccc3NC(=O)CN2C(=O)c2ccc(Br)s2)c1
% of inhibition [5]: 6%

% of control ([6]; at 1 µM): 90%
% of control ([6]; at 5 µM): 84%
% of control ([7]; at 1 µM): 72%
% of control ([7]; at 5 µM): 46%
SMILES: C=CC(=O)Nc1cccc(C(=O)Nc2ccc(Nc3cc(-c4[nH]c(SC)nc4C)ccn3)cc2)c1

SMILES: O[C@H]1CC[C@H](Nc2ncc3nc(Nc4c(F)cc(F)cc4F)n([C@H]4CCOC4)c3n2)CC1
% of control [8]: 100%

dTM [9]: 0.5 K
SMILES: CN(C(=O)c1cnn2cccnc12)c1cc2c(cc1N1CCOCC1)C(=O)N(C[C@@H](F)C(C)(C)O)C2

SMILES: COCCN1CCC(c2cc(CN(C)C(=O)c3cccc(Oc4ccccc4)c3)ccn2)CC1
IC50 [10]: > 3 nM
